Data set [1] can be described thus: Plasma decay of 125I-labelled synthetic peptide after injection into the marginal ear vein. The class given is in vivo, rabbit. Particulars: at four hours. The procedure:
Each labelled synthetic peptide preparation (containing, for example, 150 to 400 or more μCi of ^125 I-labelled peptide) in column elution buffer was injected into the marginal ear vein of the ballooned and healing New Zealand white rabbits or WHHL rabbits. Serial blood samples were obtained from the opposite ear during the ensuing 0-24 hours and were analyzed for radioactivity. The labelled peptide concentrations in the blood samples that were withdrawn over the first 10 minutes after injection were extrapolated to zero time to determine the time zero radioactivity in the calculation of average plasma radioactivity. […] Peptides SP15a, SP17, SP19a, SP21a, SP28, SP34a, and SP30 were cleared rapidly from the plasma with half-lives of about one minute or less; after one hour, the plasma levels were less than 10% of the injected dose and fell by an additional 1% over the next three hours. Peptides SP15a, SP17, SP21a, SP28, SP34a, and SP30 leveled off to a plasma level of 3-6%; peptide SP19a cleared more quickly and leveled off to a concentration of 0.3% (at four hours).
Control peptides used were SP-2 (part of the heparin and LDL receptor binding site of apolipoprotein E) and SP-11A which is a receptor and heparin binding domain of apolipoprotein B. To compare the relative accumulation of the ^125 I-labelled synthetic peptides in the aorta and adrenal gland, it was necessary to correct for differences in mean plasma concentration of the labelled compounds. The mean concentration of synthetic peptide-associated ^125 I radioactivity was calculated by numerical integration of the plasma decay curves and division by the time since injection of the isotope.

The test system of a further data set is anti-SP-4 antiserum. Description: ELISA for immunological cross-reactivity with anti-SP-4 antiserum. To be noted: ELISA plates coated with LDL or peptide, 100 ng per well. The class given is binding, rabbit. How it is done: To determine whether the molecular conformation or structure of the synthetic apoB peptides was analogous to the conformation of the apoB moiety of LDL, a polyclonal antiserum was raised to each peptide and its ability to bind LDL tested. Antiserum raised to human LDL was used as the control. To produce anti-synthetic peptide antisera, purified synthetic peptide was dissolved in PBS, pH 7.4 at a concentration of 1 mg/ml. The peptide solution was mixed with an equal volume of complete Freund's adjuvant and vortexed thoroughly until a thick emulsion was produced. New Zealand White rabbits (Millbrook Farms, Amherst, Mass.) were injected with a total of 0.5 mg synthetic peptide administered subcutaneously in the four dorsal quadrants. The rabbits were given a boost (injected at the same sites) with 0.5 mg peptide emulsified in incomplete Freund's adjuvant 2-3 weeks later. Eight to ten days after the first boost, the animals were given a second, identical boost and were bled of 30 ml 8 to 10 days later. To test for immunological cross-reactivity microtiter plates (Immulon II Dynatech Labs, Chantilly, Va.) were coated with the purified synthetic peptide or LDL by an overnight incubation at 4° C. with 100 ng peptide per well in 50 mM carbonate, pH 9.6, and blocked for nonspecific binding with an additional overnight incubation with phosphate-buffered saline, pH 7.4 (PBS), 1% bovine serum albumin (BSA). Control wells were coated with BSA alone. After washing twice with PBS, the wells were filled with serial dilutions (1:10 to 1:100,000 made in PBS, 3% BSA) of a rabbit polyclonal antibody generated against the synthetic peptide(s) and incubated for 45 minutes at room temperature. Following thorough washing (3× with PBS, 0.1% BSA), the wells were filled with a 1:2000 dilution of goat anti-rabbit IgG-horseradish peroxidase conjugate (Atlantic Antibodies, Scarborough, Me.). After a final wash, the wells were filled with 3,3'-5,5'-tetramethybenzidine (TMB) microwell peroxidase substrate (Kirkegaard and Perry Labs, Gaithersburg, Md.) and read at 650 nm every two minutes on an ELISA-5 automated plate reader (Physica, New York, N.Y.). Results (see, e.g., FIGS. 4 and 5) are expressed as the initial velocity of substrate conversion (change in OD650 /hr), which is determined by a linear regression of 15 data points per well. Each data point represents the average of three measured data points from the same plate, run at the same time.
(ELISA stands for enzyme-linked immunosorbent assay.)

Ends that are not written are not given here.

With “Ac-YAKFRETLEDTRDRMY-NH2 [SP-15a, CH3 CONH-Tyr-Ala-Lys-Phe-Arg-Glu-Thr-Leu-Glu-Asp-Thr-Arg-Asp-Arg-Met-Tyr-CONH2]”, the “Plasma level at which the peptide leveled off” value (from here on “Plasma level”) in data set [1] is recorded as 3-6%.

Consider “Ac-YKLALEAARLLANAEGAK-NH2 [SP-8A, CH3 CONH-Tyr-Lys-Leu-Ala-Leu-Glu-Ala-Ala-Arg-Leu-Leu-Ala-Asn-Ala-Glu-Gly-Ala-Lys-CONH2]”, for which the “Binding of anti-SP-4 antiserum to coated antigen” value (shortened to “Binding of anti-SP-4 antiserum”) with anti-SP-4 antiserum is given as “shown to bind”. For the substance “Ac-YRALVDTLK-NH2 [SP-14A, CH3 CONH-Tyr-Arg-Ala-Leu-Val-Asp-Thr-Leu-Lys-CONH2]”, the “Binding of anti-SP-4 antiserum” value in the data set with anti-SP-4 antiserum is on record as “shown to bind”. Regarding “Ac-YRALVDTEFKVKQEAGAK-NH2 [SP-21a, CH3 CONH-Tyr-Arg-Ala-Leu-Val-Asp-Thr-Glu-Phe-Lys-Val-Lys-Gln-Glu-Ala-Gly-Ala-Lys-CONH2]”, the “Plasma level” value in data set [1] was 3-6%.

For the substance “YKLALEAARLLADAEGAK-NH2 [SP-6, H2 N-Tyr-Lys-Leu-Ala-Leu-Glu-Ala-Ala-Arg-Leu-Leu-Ala-Asp-Ala-Glu-Gly-Ala-Lys- CONH2]”, in the data set with anti-SP-4 antiserum, the “Binding of anti-SP-4 antiserum” value is “shown to bind”.

Regarding “Ac-YKLALEAARLLADAEGAK-NH2 [SP-6A, CH3 CONH-Tyr-Lys-Leu-Ala-Leu-Glu-Ala-Ala-Arg-Leu-Leu-Ala-Asp-Ala-Glu-Gly-Ala-Lys-CONH2]”, in the data set with anti-SP-4 antiserum, the “Binding of anti-SP-4 antiserum” value is listed as “shown to bind”.

Consider “YAALDLNAVANKIADFEL-NH2 [SP-17, H2 N-Tyr-Ala-Ala-Leu-Asp-Leu-Asn-Ala-Val-Ala-Asn-Lys-Ile-Ala-Asp-Phe-Glu-Leu- CONH2]”, for which, in data set [1], the “Plasma level” value is on record as 3-6%. Regarding “Ac-YRALVDTLKFVTEQAKGA-NH2 [SP-19a, CH3 CONH-Tyr-Arg-Ala-Leu-Val-Asp-Thr-Leu-Lys-Phe-Val-Thr-Glu-Gln-Ala-Lys-Gly-Ala-CONH2]”, in data set [1], the “Plasma level” value was found to be 0.3%. For the substance “YKLALEAARLLANAEGAK-NH2 [SP-8, H2 N-Tyr-Lys-Leu-Ala-Leu-Glu-Ala-Ala-Arq-Leu-Leu-Ala-Asn-Ala-Glu-Gly-Ala-Lys- CONH2]”, in the data set with anti-SP-4 antiserum, the “Binding of anti-SP-4 antiserum” value is given as “shown to bind”. “YRALVDTLKFVTQAEGAK-NH2 [SP-4, NH2 -Tyr-Arg-Ala-Leu-Val-Asp-Thr-Leu-LYs-Phe-Val-Thr-Gln-Ala-Glu-Gly-Ala-Lys-CONH2]”: the “Binding of anti-SP-4 antiserum” value in the data set on anti-SP-4 antiserum is on record as “shown to bind”.

On to Ac-YVLDEFREKLNEELEALKQK-NH2 [SP-34a], for which, in data set [1], the “Plasma level” value is 3-6%. For the substance “YVGVAPGVGVAPGVGVAPG [SP-28, H2 N-Tyr-Val-Gly-Val-Ala-Pro-Gly-val-Gly-Val-Ala-Pro-Gly-Val-Gly-Val-Ala-Pro- Gly-OH]”, the “Plasma level” value in data set [1] is 3-6%. Regarding “YVPGVGVPGVGVPGVGVPGVG-NH2 [SP-30, H2 N-Tyr-Val-Pro-Gly-Val-Gly-Val-Pro-Gly-Val-Gly-Val-Pro-Gly-Val-Gly-Val-Pro- Gly-Val-Gly-CONH2]”, the “Plasma level” value in data set [1] was 3-6%. For the substance “Ac-YRALVDYLKFVTQL-NH2 [SP-12A, CH3 CONH-Tyr-Arg-Ala-Leu-Val-Asp-Tyr-Leu-Lys-Phe-Val-Thr-Gln-Leu-CONH2]”, the “Binding of anti-SP-4 antiserum” value with anti-SP-4 antiserum is reported as “shown to bind”. Regarding “Ac-YRALVDTLKFVTQAEGAK-NH2 [SP-4A, CH3 CONH-Tyr-Arg-Ala-Leu-Val-Asp-Thr-Leu-Lys-Phe-Val-Thr-Gln-Ala-Glu-Gly-Ala-Lys-CONH2]”, in the data set with anti-SP-4 antiserum, the “Binding of anti-SP-4 antiserum” value is “shown to bind”.

(Values after patent US5955055A, “Synthetic peptides for arterial imaging at vascular imaging sites” (New England Deaconess Hospital Corporation, priority 1995, dated 1999).)
